Holding throughout (type): cell-based
The target in experiment [1] is T1, human prostanoid IP receptor (Homo sapiens, UniProt P43119).
T1 construct: expressed in transfected cells
Description: FLIPR Ca2+ signaling antagonist assay, IP receptor stable cell line. The following applies: HEK-293 EBNA stable cell line; standard agonist Cicaprost; NA = inactive (no antagonism or Kb 10,000 nM); PAg, Ag not defined. Summed up: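 HEK-293 EBNA cells stably expressing receptor (EP3 co-expressed with chimeric Gqi; EP1, IP, TP without exogenous G protein), Fluo-4 loaded, read on FLIPR at 37° C. Antagonist added 4.5 min before standard agonist (EP1/EP3 PGE2, IP cicaprost 10^−11–10^−5 M; TP U-46619 10^−12–10^−6 M); antagonist 0.1–30 μM, TP 0.067–1 μM; peak fluorescence relative to 10^−6 M agonist.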

The target in experiment [2] is T2, human prostanoid EP3 receptor (Homo sapiens, UniProt P43115).
T2 construct: expressed in transfected cells
T2 sequence (P43115 1-390): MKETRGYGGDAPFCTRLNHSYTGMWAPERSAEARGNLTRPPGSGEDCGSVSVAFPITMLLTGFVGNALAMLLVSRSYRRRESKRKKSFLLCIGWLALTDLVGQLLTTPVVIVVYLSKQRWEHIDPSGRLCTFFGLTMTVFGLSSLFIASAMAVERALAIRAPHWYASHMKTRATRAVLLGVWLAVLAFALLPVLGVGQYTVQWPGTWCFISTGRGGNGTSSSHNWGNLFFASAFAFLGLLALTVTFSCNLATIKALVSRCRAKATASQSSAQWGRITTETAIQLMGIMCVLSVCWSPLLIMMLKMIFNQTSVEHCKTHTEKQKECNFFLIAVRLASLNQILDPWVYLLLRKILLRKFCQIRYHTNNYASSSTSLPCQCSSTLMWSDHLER
Description: FLIPR Ca2+ signaling antagonist assay, EP3 receptor stable cell line. The note with it: HEK-293 EBNA stable cell line; standard agonist PGE2; NA = inactive (no antagonism or Kb 10,000 nM); PAg, Ag not defined. On the procedure:
The above compounds were tested for PG antagonist activity as follows using human recombinant prostanoid receptor (DP1, EP1-4, FP, IP and TP) stable cell lines:
In order to measure the response of Gs and Gi coupled prostanoid receptors as a Ca^2+ signal, chimeric G protein cDNAs were used. Stable cell lines over-expressing human prostanoid DP1, EP1-4, FP, IP, and TP receptors were established as follows:
Briefly, human prostanoid DP1, EP2, and EP4 receptor cDNAs were co-transfected with chimeric Gqs cDNA containing a haemagglutanin (HA) epitope; human prostanoid EP3 receptors were co-transfected with chimeric Gqi-HA; human EP1, FP, IP, and TP receptor cDNAs were expressed with no exogenous G-proteins. Gqs and Gqi chimeric cDNAs (Molecular Devices, Sunnyvale, Calif., U.S.A.), as well as cDNAs of prostanoid receptors, were cloned into a pCEP4 vector with a hygromycin B selection marker. Transfection into HEK-293 EBNA (Epstein-Barr virus nuclear antigen) cells was achieved by the FuGENE 6 transfection Reagent (Roche Applied Science, Indianapolis, Ind., USA). Stable transfectants were selected according to hygromycin resistance. Because Gqs and Gqi contained an HA epitope, G-protein expression was detected by Western blotting analysis using anti-mouse HA monoclonal antibody and horseradish peroxidase (HRP)-conjugated secondary antibody, while functional expression of prostanoid receptors was detected by FLIPR screening (Matias et al., 2004). These stable cell lines were validated using previously published antagonists at 10 μM against serial dilutions of standard agonists by FLIPR functional assays for Ca^2+ Signaling (as described below).
Ca^2+ signaling studies were performed using a FLIPR TETRA system (Molecular Devices, Sunnyvale, Calif., USA) in the 384-format. This is a high-throughput instrument for cell-based assays to monitor Ca^2+ signaling associated with GPCRs and ion channels. Cells were seeded at a density of 5×10^4 cells/well in BioCoat poly-D-lysine coated, black wall, clear bottom 384-well plates (BD Biosciences, Franklin lakes, NJ, USA) and allowed to attach overnight in an incubator at 37° C. The cells were then washed twice with HBSS-HEPES buffer (Hanks' balanced salt solution without bicarbonate and phenol red, 20 mM HEPES, pH 7.4) using an ELx405 Select CW Microplate Washer (BioTek, Winooski, Vt., USA). After 60 min of dye-loading in the dark using the Ca^2+-sensitive dye Fluo-4AM (Invitrogen, Carlsbad, Calif., USA), at a final concentration of 2×10^−6M, the plates were washed 4 times with HBSS-HEPES buffer to remove excess dye and leaving 50 μl of buffer in each well. The plates were then placed in the FLIPR TETRA instrument and allowed to equilibrate at 37° C. AGN-211377 was added in a 25 μl volume to each well to give final concentrations of 0.1 μM, 0.3 μM, 1 μM, 3 μM, 10 μM, and 30 μM; or 0.067 μM, 0.1 μM, 0.2 μM, 0.3 μM, 0.67 μM, and 1 μM for cells over-expressing TP receptors. After 4.5 minutes, a 7-point serial dilution of the standard agonist for the corresponding receptor, in a 25 μl volume was injected at the final concentrations from 10^−11M to 10^−5M in 10-fold serial dilution increments for cells expressing human recombinant DP1, EP1, EP2, EP3, EP4, FP, and IP receptors. The dose range for the standard agonist for human recombinant TP receptors was from 10^−12 M to 10^−6 M. HBSS-HEPES buffer was used as the negative control for the standard agonists. Cells were excited with LED (light emitting diode) excitation at 470-495 nm and emission was measured through an emission filter at 515-575 nm. Assay plates were read for 3.5 minutes using the FLIPR^TETRA. The peak increase in fluorescence intensity was recorded for each well. On each plate, negative controls, dose response of positive controls, and co-treatments of antagonist-agonist for each dose were in triplicates.
Standard agonists were as follows: DP=BW 245C, EP1-EP4=PGE2, FP=17-phenyl-PGF2α, IP=Cicaprost, and TP=U-46619. […]

The target in experiment [3] is T3, human prostanoid DP1 receptor (Homo sapiens, UniProt Q13258).
T3 construct: expressed in transfected cells
T3 sequence (Q13258 1-359): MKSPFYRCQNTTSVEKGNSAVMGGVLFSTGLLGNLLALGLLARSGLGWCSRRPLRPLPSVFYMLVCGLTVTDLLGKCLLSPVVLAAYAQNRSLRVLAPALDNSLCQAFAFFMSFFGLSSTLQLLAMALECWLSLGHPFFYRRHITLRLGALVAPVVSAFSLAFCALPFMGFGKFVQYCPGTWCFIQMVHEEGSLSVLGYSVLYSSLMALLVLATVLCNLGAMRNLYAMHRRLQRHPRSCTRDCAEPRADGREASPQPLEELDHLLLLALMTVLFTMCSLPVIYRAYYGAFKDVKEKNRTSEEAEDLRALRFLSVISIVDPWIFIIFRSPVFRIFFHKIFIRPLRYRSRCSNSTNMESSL
The experiment can be described thus: FLIPR Ca2+ signaling antagonist assay, DP1 receptor stable cell line. The following applies: HEK-293 EBNA stable cell line; standard agonist BW 245C; NA = inactive (no antagonism or Kb 10,000 nM); PAg, Ag not defined. The essentials: (§1)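 Peak Fluo-4 fluorescence (ex 470–495, em 515–575 nm) was read for 3.5 min on FLIPR after agonist injection and expressed relative to 10^−6 M standard agonist. Cells were HEK-293 EBNA transfectants. Test compound was added 4.5 min beforehand at 0.1–30 μM, or 0.067–1 μM for TP.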

Experiment [4] has as its target T4, human prostanoid FP receptor (Homo sapiens, UniProt P43088).
T4 construct: expressed in transfected cells
The experiment can be described thus: FLIPR Ca2+ signaling antagonist assay, FP receptor stable cell line. The following applies: HEK-293 EBNA stable cell line; standard agonist 17-phenyl-PGF2α; NA = inactive (no antagonism or Kb 10,000 nM); PAg, Ag not defined. The essentials:
as §1

By Kb is commonly meant the affinity of an antagonist, worked out from how it opposes an agonist. Higher therefore signals a less potent antagonist.

Molecules are shown by their SMILES.

T4 sequence (P43088 whole entry): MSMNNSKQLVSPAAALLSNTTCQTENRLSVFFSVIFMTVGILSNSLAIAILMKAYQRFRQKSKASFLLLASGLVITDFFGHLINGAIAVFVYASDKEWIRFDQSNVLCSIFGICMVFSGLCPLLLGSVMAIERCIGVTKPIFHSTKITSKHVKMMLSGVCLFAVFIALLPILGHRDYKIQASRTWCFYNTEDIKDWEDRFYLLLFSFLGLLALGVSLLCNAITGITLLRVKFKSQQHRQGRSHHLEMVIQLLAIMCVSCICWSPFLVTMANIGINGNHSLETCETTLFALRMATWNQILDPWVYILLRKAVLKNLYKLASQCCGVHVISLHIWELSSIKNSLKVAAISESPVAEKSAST
T1 sequence (P43119 whole entry): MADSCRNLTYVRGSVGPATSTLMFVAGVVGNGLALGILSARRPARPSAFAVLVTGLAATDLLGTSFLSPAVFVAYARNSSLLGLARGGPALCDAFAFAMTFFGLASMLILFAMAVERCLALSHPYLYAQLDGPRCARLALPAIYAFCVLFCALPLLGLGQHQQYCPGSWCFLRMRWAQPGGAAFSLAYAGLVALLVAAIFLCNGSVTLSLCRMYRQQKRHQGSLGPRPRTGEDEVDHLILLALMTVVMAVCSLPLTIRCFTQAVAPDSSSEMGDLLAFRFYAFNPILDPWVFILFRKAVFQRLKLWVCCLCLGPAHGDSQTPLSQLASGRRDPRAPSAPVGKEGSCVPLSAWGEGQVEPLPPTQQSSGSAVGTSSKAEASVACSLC

On to `CCCc1cc(CCC(=O)O)nn1Cc1cc(Br)ccc1OCC(CC)CC` [Example 56, 3-{1-[5-Bromo-2-(2-ethyl-butoxy)-benzyl]-5-propyl-1H-pyrazol-3-yl}-propionic acid], for which the antagonist dissociation constant (Kb) came to 1300 nM in experiment [1], 2700 nM in experiment [2], 800 nM in experiment [3] and 900 nM in experiment [4].

Consider `Cc1cc(CCC(=O)NS(=O)(=O)C(F)(F)F)nn1Cc1cc(Br)ccc1OCC(C)C` [Example 19, N-(3-{1-[5-Bromo-2-isobutoxybenzyl]-5-methyl-1H-pyrazol-3-yl}-propionyl)-C,C,C-trifluoro-methanesulfonamide], for which the antagonist equilibrium constant (Kb) in experiment [1] turned out to be 1400 nM; in experiment [2], 700 nM; in experiment [3] it was 200 nM; in experiment [4], 220 nM.

`Cc1cc(CCC(=O)NS(=O)(=O)CC(F)(F)F)nn1Cc1cc(Cl)ccc1OCc1ccc(Cl)cc1` [Example 25, 2,2,2-trifluoroethanesulfonic acid-(3-[1-(5-Chloro-2-(4-chlorobenzyloxy)benzyl)-5-methyl-1H-pyrazol-3-yl]-propionyl)amide]: the Kb was found to be 7900 nM in experiment [1], 4500 nM in experiment [2], 1330 nM in experiment [3] and 400 nM in experiment [4].

For the molecule `Cc1cc(CCC(=O)O)nn1Cc1cc(OC(F)(F)F)ccc1OCC1CCCC1` [Example 50, 3-[1-(2-Cyclopentylmethoxy-5-trifluoromethoxy-benzyl)-5-methyl-1H-pyrazol-3-yl]-propionic acid], the Kb in experiment [1] was 1500 nM; in experiment [2] it was 7100 nM; in experiment [4] it was 90 nM. Moreover, in experiment [3], the “DP1 (FLIPR) Kb” value is recorded as “Ag”.

With `CCC(CC)COc1ccc(Br)cc1Cn1nc(CCC(=O)O)cc1C(C)(C)C` [Example 57, 3-{1-[5-Bromo-2-(2-ethyl-butoxy)-benzyl]-5-tert-butyl-1H-pyrazol-3-yl}-propionic acid], the Kb in experiment [1] stood at 800 nM; in experiment [2], 6600 nM; in experiment [3], 1600 nM; in experiment [4], 500 nM.

Consider `CCC(CC)COc1ccc(Br)cc1Cn1nc(CCC(=O)NS(=O)(=O)C(F)(F)F)cc1C` [Example 17, N-(3-{1-[5-Bromo-2-(2-ethyl-butoxy)-benzyl]-5-methyl-1H-pyrazol-3-yl}-propionyl)-C,C,C-trifluoro-methanesulfonamide], for which the antagonist dissociation constant (Kb) in experiment [1] was found to be 2700 nM; in experiment [2] it was 1000 nM; in experiment [3], 200 nM; in experiment [4] it was 400 nM.

As to `CCC(CC)COc1ccc(Cl)cc1Cn1nc(CC(C)C(=O)O)cc1C` (racemic) [Example 68, 3-{1-[5-Chloro-2-(2-ethyl-butoxy)-benzyl]-5-methyl-1H-pyrazol-3-yl}-2-methyl-propionic acid], the Kb in experiment [1] came to 5700 nM; in experiment [2] it was 5200 nM; in experiment [3], 260 nM; in experiment [4], 400 nM.

For `Cc1cc(CCC(=O)NS(=O)(=O)c2ccccc2)nn1Cc1cc(Cl)ccc1OCc1ccc(Cl)cc1` [Example 24, N-(3-[1-(5-Chloro-2-(4-chlorobenzyloxy)benzyl)-5-methyl-1H-pyrazol-3-yl]-propionyl)benzenesulfonamide], the Kb came out at 1000 nM in experiment [1], 2500 nM in experiment [2], 800 nM in experiment [3] and 800 nM in experiment [4].

Take `CCCCC(CC)COc1ccc(Br)cc1Cn1nc(CCC(=O)O)cc1C` (stereo not drawn) [Example 6, 3-[1-(5-Bromo-2-(2-ethyl-hexyloxy)-benzyl)-5-methyl-1H-pyrazol-3-yl]-propionic acid]: the Kb was 1800 nM in experiment [1], 8800 nM in experiment [2], 180 nM in experiment [3] and 400 nM in experiment [4].

`Cc1cc(CCC(=O)NS(=O)(=O)C(F)(F)F)nn1Cc1cc(Cl)ccc1OCc1ccc(Cl)cc1Cl` [Example 27, N-(3-[1-(5-Chloro-2-(2,4-dichlorobenzyloxy)benzyl)-5-methyl-1H-pyrazol-3-yl]-propionyl)C,C,C-trifluoromethanesulfonamide]: the Kb worked out at 400 nM in experiment [1], 500 nM in experiment [2], 200 nM in experiment [3] and 90 nM in experiment [4].

Turning to `Cc1cc(CCC(=O)O)nn1Cc1cc(Cl)ccc1OCC(C)(C)C` [Example 35, 3-[1-(5-Chloro-2-(2,2-dimethylropoxy)benzyl)-5-methyl-1H-pyrazol-3-yl]-propionic acid], the Kb was determined as 3700 nM in experiment [1], 5400 nM in experiment [2] and 110 nM in experiment [4]. Moreover, in experiment [3], the “DP1 (FLIPR) Kb” value is listed as “PAg”.

Regarding `Cc1cc(CCC(=O)NS(=O)(=O)C(F)(F)F)nn1Cc1cc(Cl)ccc1CCC1CCCC1` [Example 75], the antagonist equilibrium constant (Kb) in experiment [1] stood at 1900 nM; in experiment [2], 1600 nM; in experiment [3], 350 nM; in experiment [4] it was 1500 nM.

Source of the values: patent US9394284B2, “Compounds act at multiple prostaglandin receptors giving a general anti-inflammatory response” (Allergan, Inc., priority 2010, dated 2016).
